Data from patent US6355799B1, “Substituted benzene compounds, process for their preparation, and herbicidal and defoliant compositions containing them” (ISK Americas Incorporated, priority 1997, dated 2002).

Experiments:
Type in all cases: in vivo
[1] = tested on: johnsongrass (Sorghum halepense, SORHA); test: Post-emerge test, greenhouse herbicide activity screening; settings: post-emerge, phytotoxicity rating 0-100 at 14 days after application
In short: (§1)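 Sandy loam pots; pre-emerge: sown 1 d pre-spray, surface-watered after, then bottom-watered. Post-emerge: sown 8–21 d before, 2–3 leaf stage, + 0.25% v/v NIS, bottom-watered. Acetone, 187 l/ha track spray, 15–1000 g ai/ha. 0–100 injury score, day 14.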

[2] = tested on: velvetleaf (Abutilon theophrasti, ABUTH); test: as above; settings: post-emerge, phytotoxicity rating 0-100 at 14 days after application
In short: as §1

[3] = tested on: redroot pigweed (Amaranthus retroflexus, AMARE); test: as above; settings: post-emerge, phytotoxicity rating 0-100 at 14 days after application
In short: as §1

[4] = tested on: green foxtail (Setaria viridis, SETVI); test: as above; settings: post-emerge, phytotoxicity rating 0-100 at 14 days after application
In short: as §1

[5] = tested on: sicklepod (Cassia obtusifolia, CASOB); test: as above; settings: post-emerge, phytotoxicity rating 0-100 at 14 days after application
In short: as §1

[6] = tested on: ivyleaf morningglory (Ipomoea hederacea, IPOHE); test: as above; settings: post-emerge, phytotoxicity rating 0-100 at 14 days after application
In short: as §1

[7] = tested on: large crabgrass (Digitaria sanguinalis, DIGSA); test: as above; settings: post-emerge, phytotoxicity rating 0-100 at 14 days after application
In short: as §1

[8] = tested on: barnyardgrass (Echinochloa crus-galli, ECHCG); test: as above; settings: post-emerge, phytotoxicity rating 0-100 at 14 days after application
In short: as §1

[9] = tested on: lambsquarters (Chenopodium album, CHEAL); test: as above; settings: post-emerge, phytotoxicity rating 0-100 at 14 days after application
In short: as §1

[10] = tested on: johnsongrass (Sorghum halepense, SORHA); test: Pre-emerge test, greenhouse herbicide activity screening; settings: pre-emerge, phytotoxicity rating 0-100 at 14 days after application
In short: (§2)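 Compounds in acetone were track-sprayed at 15–1000 g ai/ha: pre-emergence onto soil sown the previous day, then top-watered to incorporate and later bottom-watered; post-emergence onto 2–3 leaf plants with 0.25% v/v surfactant, bottom-watered only. Ratings on a 0–100 phytotoxicity scale were taken at day 14.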

[11] = tested on: velvetleaf (Abutilon theophrasti, ABUTH); test: as above; settings: pre-emerge, phytotoxicity rating 0-100 at 14 days after application
In short: as §2

[12] = tested on: green foxtail (Setaria viridis, SETVI); test: as above; settings: pre-emerge, phytotoxicity rating 0-100 at 14 days after application
In short: as §2

[13] = tested on: sicklepod (Cassia obtusifolia, CASOB); test: as above; settings: pre-emerge, phytotoxicity rating 0-100 at 14 days after application
In short: as §2

[14] = tested on: ivyleaf morningglory (Ipomoea hederacea, IPOHE); test: as above; settings: pre-emerge, phytotoxicity rating 0-100 at 14 days after application
In short: as §2

[15] = tested on: large crabgrass (Digitaria sanguinalis, DIGSA); test: as above; settings: pre-emerge, phytotoxicity rating 0-100 at 14 days after application
In short: as §2

[16] = tested on: barnyardgrass (Echinochloa crus-galli, ECHCG); test: as above; settings: pre-emerge, phytotoxicity rating 0-100 at 14 days after application
In short: as §2

[17] = tested on: lambsquarters (Chenopodium album, CHEAL); test: as above; settings: pre-emerge, phytotoxicity rating 0-100 at 14 days after application
In short: as §2

[18] = tested on: redroot pigweed (Amaranthus retroflexus, AMARE); test: as above; settings: pre-emerge, phytotoxicity rating 0-100 at 14 days after application
In short: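 Compounds in acetone were track-sprayed at 15-1000 g ai/ha (187 l/ha) on sandy loam pots: pre-emerge one day after seeding, post-emerge at 2-3 leaf stage with 0.25% v/v non-ionic surfactant. Phytotoxicity was rated 14 days later on a 0 (no damage) to 100 (complete death) scale.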

[19] = tested on: upland rice (Oryza sp., var. Tebonnet, RICE); test: Pre-emerge test, crop safety; settings: crop damage, pre-emerge, phytotoxicity rating 0-100 at 14 days after application
In short: (§3)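 Rating: 0–100 visual injury, 14 DAA. Application: acetone, 187 l/ha, 15–1000 g ai/ha, flat-fan track sprayer with nozzle 40–45 cm above soil or canopy. Post-emerge runs used 0.25% v/v surfactant on 2–3 leaf plants.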

[20] = tested on: field corn (Zea mays L., var. Dekalb 535, CORN); test: Pre-emerge test, crop safety; settings: crop damage, pre-emerge, phytotoxicity rating 0-100 at 14 days after application
In short: as §3

[21] = tested on: upland rice (Oryza sp., var. Tebonnet, RICE); test: Post-emerge test, crop safety; settings: post-emerge, crop damage rating 0-100 at 14 days after application
In short: as §3

[22] = tested on: field corn (Zea mays L., var. Dekalb 535, CORN); test: Post-emerge test, crop safety; settings: post-emerge, crop damage rating 0-100 at 14 days after application
In short: as §3

Cc1c(Cl)cc(F)c(-n2c(=O)cc(C(F)(F)F)n(C)c2=O)c1NC(=O)OCc1ccc(Cl)cc1 [4-61]
80: Post-emerge Herbicidal Activity SETVI ([4]; 250 g ai/ha) | Pre-emerge Herbicidal Activity SETVI ([12]; rate 63 g ai/ha) | Post-emerge Herbicidal Activity RICE ([21]; 250 g ai/ha)
60: Post-emerge Herbicidal Activity ECHCG ([8]; 250 g ai/ha) | Pre-emerge Herbicidal Activity ABUTH ([11]; rate 63 g ai/ha) | Pre-emerge Herbicidal Activity IPOHE ([14]; rate 250 g ai/ha)
20: Pre-emerge Herbicidal Activity SORHA ([10]; rate 63 g ai/ha)
40: Post-emerge Herbicidal Activity ECHCG ([8]; 63 g ai/ha) | Pre-emerge Herbicidal Activity CASOB ([13]; rate 63 g ai/ha) | Post-emerge Herbicidal Activity RICE ([21]; 63 g ai/ha)
30: Pre-emerge Herbicidal Activity CASOB ([13]; rate 250 g ai/ha) | Pre-emerge Herbicidal Activity IPOHE ([14]; rate 63 g ai/ha) | Pre-emerge Herbicidal Activity ECHCG ([16]; rate 63 g ai/ha)
100: Post-emerge Herbicidal Activity ABUTH ([2]; 63 g ai/ha) | Post-emerge Herbicidal Activity ABUTH ([2]; 250 g ai/ha) | Post-emerge Herbicidal Activity AMARE ([3]; 63 g ai/ha) | Post-emerge Herbicidal Activity AMARE ([3]; 250 g ai/ha) | Post-emerge Herbicidal Activity CASOB ([5]; 63 g ai/ha) | Post-emerge Herbicidal Activity CASOB ([5]; 250 g ai/ha) | Post-emerge Herbicidal Activity IPOHE ([6]; 63 g ai/ha) | Post-emerge Herbicidal Activity IPOHE ([6]; 250 g ai/ha) | Post-emerge Herbicidal Activity CHEAL ([9]; 63 g ai/ha) | Post-emerge Herbicidal Activity CHEAL ([9]; 250 g ai/ha) | Pre-emerge Herbicidal Activity CHEAL ([17]; rate 63 g ai/ha) | Pre-emerge Herbicidal Activity CHEAL ([17]; rate 250 g ai/ha) | Pre-emerge Herbicidal Activity AMARE ([18]; rate 63 g ai/ha) | Pre-emerge Herbicidal Activity AMARE ([18]; rate 250 g ai/ha)
0: Pre-emerge Herbicidal Activity RICE ([19]; rate 63 g ai/ha) | Pre-emerge Herbicidal Activity CORN ([20]; rate 63 g ai/ha) | Pre-emerge Herbicidal Activity CORN ([20]; rate 250 g ai/ha)
90: Pre-emerge Herbicidal Activity DIGSA ([15]; rate 250 g ai/ha)
70: Post-emerge Herbicidal Activity SORHA ([1]; 250 g ai/ha) | Post-emerge Herbicidal Activity SETVI ([4]; 63 g ai/ha) | Post-emerge Herbicidal Activity DIGSA ([7]; 250 g ai/ha) | Pre-emerge Herbicidal Activity ABUTH ([11]; rate 250 g ai/ha) | Post-emerge Herbicidal Activity CORN ([22]; 250 g ai/ha)
50: Post-emerge Herbicidal Activity SORHA ([1]; 63 g ai/ha) | Post-emerge Herbicidal Activity DIGSA ([7]; 63 g ai/ha) | Pre-emerge Herbicidal Activity SORHA ([10]; rate 250 g ai/ha) | Pre-emerge Herbicidal Activity DIGSA ([15]; rate 63 g ai/ha) | Pre-emerge Herbicidal Activity ECHCG ([16]; rate 250 g ai/ha) | Pre-emerge Herbicidal Activity RICE ([19]; rate 250 g ai/ha) | Post-emerge Herbicidal Activity CORN ([22]; 63 g ai/ha)
75: Pre-emerge Herbicidal Activity SETVI ([12]; rate 250 g ai/ha)
